Assay results from PubChem BioAssay AID1981 (Southern Research Specialized Biocontainment Screening …, 2009).

Test system: S. Typhimurium PhoP-promoter GFP reporter counterscreen, fluorescence, 4 h
Assay: S. Typhimurium GFP fluorescence dose response in modified counterscreen for PhoP regulon inhibitor project (AID 1981)

SMILES | IC50 [µM]
Cc1c2ccncc2c(C)c2c1[nH]c1ccccc12 | 69.7
COC(=O)C1C(O)C(C)C(O)C(C)(O)/C=C\C=C(/C)C(=O)Nc2c(C)c(OC(C)=O)c3c(c2O)C(=O)C(C)=C2OCOC(=C23)/C(C)=C/C(C)(O)C(O)C(C)C1O (stereo not drawn) | 18.6
Clc1ccc(CNCc2cccs2)cc1Cl | 123
NC(Cc1cc(O)c(O)cc1O)C(=O)O (stereo not drawn) | 93
CN1CCN(C(c2ccccn2)c2cc(Cl)c3cccnc3c2O)CC1 (stereo not drawn) | 67.3
COC(=O)c1c(NC(=O)c2ccc([N+](=O)[O-])o2)sc2c1CCN(C(C)C)C2 | 55.8
CCCc1nnc(NC(=O)c2cn(CC)c3cc(N4CCN(C)CC4)c(F)cc3c2=O)s1 | 109
COc1cc(Cc2cc(N)nc(N)n2)cc(OC)c1OC | 1
c1ccc(-c2cccc(-c3ccccn3)n2)nc1 | 16.4
CN(C)[C@@H]1C(=O)C(C(N)=O)=C(O)[C@@]2(O)C(=O)C3=C(O)c4c(O)cccc4[C@@](C)(O)C3[C@H](O)C12 (stereo partly drawn) | 1.34
Cc1ccccc1Nc1cc(C)c2c(O)cccc2n1 | 88.2
O=C(C[n+]1cc(-c2ccc(Cl)c(Cl)c2)n2c1CCC2)N1c2ccccc2Sc2ccccc21 | 84.7
CN(C)CCCNc1cc(C(C)(C)C)nc2c(-c3ccccc3)cnn12 | 83.5
O=[N+]([O-])c1ccc(O)c2ncccc12 | 2.7
CCn1cc(C(=O)O)c(=O)c2cc(F)c(N3CCN(C(=S)NC(=O)c4c(OC)cccc4OC)CC3)cc21 | 62.8
Oc1ccc(N=Cc2ccc(O)c(O)c2)cc1 | 67.6
O=C(N/N=C/c1ccc(O)cc1O)C(=O)N/N=C/c1ccc(O)cc1O | 51
Oc1c(CN2CCOCC2)cc(COCc2ccccc2)c2cccnc12 | 98.2
Clc1ccc(Cl)c(OCCCCNCc2ccccc2)c1 | 131
Nc1nnc(-c2cccc(Cl)c2Cl)c(N)n1 | 66.4
CCCCCCCCCCCCCCCC[N+](C)(C)CC | 24.9
Cc1ccc(S(=O)(=O)/N=C2/C=C(Sc3ncn[nH]3)C(=O)c3ccccc32)cc1 | 36.6

SMILES | IC50 [µM]
CCCCCCCCCCCCCCCC[n+]1ccc(/C=N/O)cc1 | 30.6
COc1ccc(/C=N/Nc2cc(C)nc3ccccc23)cc1 | 84.8
O=C(C[n+]1cccc(CNC(=O)c2ccc(OC(F)F)cc2)c1)Nc1ccc(SC(F)F)cc1 | 96.3
CNc1nc(NCc2ccccc2)c2ccccc2n1 | 96.7
CC(C)(C)CC(C)(C)c1ccc(OCCOCC[N+](C)(C)Cc2ccccc2)cc1 | 47.1
O=C(OCC1O[C@@H](OC(=O)c2cc(O)c(O)c(O)c2)[C@@H](OC(=O)c2cc(O)c(O)c(O)c2)[C@@H](OC(=O)c2cc(O)c(O)c(O)c2)[C@@H]1OC(=O)c1cc(O)c(O)c(O)c1)c1cc(O)c(O)c(O)c1 (stereo partly drawn) | 83.1
CCn1cc(C(=O)O)c(=O)c2cnc(N3CCNCC3)nc21 | 58.4
COc1ccccc1CNCC(O)Cn1c2ccccc2c2ccccc21 (stereo not drawn) | 88.7
Cc1ccc(C(c2cc(Cl)c3cccnc3c2O)N2CCN(C)CC2)cc1 (stereo not drawn) | 41.1
COc1cccc(/C=N\NC(=O)Cn2nnc3ccccc32)c1O | 75.1
Oc1cc(Cl)ccc1Oc1ccc(Cl)cc1Cl | 0.68
CN1CCN(c2c(F)cc3c(=O)c(C(=O)O)cn4c3c2OCN4C)CC1 | 0.28
O=C(Cc1ccccc1)Nc1cccc(N2C(=O)C=CC2=O)c1 | 142
CN(C)C1C(=O)C(C(N)=O)=C(O)C2(O)C(=O)C3=C(O)c4c(O)cccc4C(C)(O)C3CC12 (stereo not drawn) | 0.67
CCCC(=O)NC(c1ccc(C)cc1)c1ccc2cccnc2c1O (stereo not drawn) | 54.7
COc1cnc(-c2ccccn2)[nH]c1=O | 45.7
CCCCCCCCCCCCCCCC[N+](C)(C)CCN(Cc1ccc(OC)cc1)c1ncccn1 | 24.2
Nc1c(Cl)ncnc1N/N=C/c1ccccn1 | 32.2
Oc1ccc(CN2CCN(Cc3ccccc3)CC2)c2cccnc12 | 59.2
NC1=NC2(CCCCC2)N=C(Nc2ccc(Br)cc2)N1 | 138
C/C(=N\Nc1ncnc2sc(C)c(C)c12)c1ccccn1 | 33.4
CCn1nc(C(=O)O)c(=O)c2cc3c(cc21)OCO3 | 52.1

SMILES | IC50 [µM]
O=C1c2ccccc2C(=O)N1c1cccc(-c2csc(Nc3ccc4c(c3)OCO4)n2)c1 | 128
Cc1ccc(C(C[N+](=O)[O-])c2c(N)n(C)c(=O)n(C)c2=O)cc1 (stereo not drawn) | 18.4
CCOc1ccc(Nc2nc(N)c3ccccc3n2)cc1 | 109
CO[C@@]1(NC(=O)C2SC(=C(C(N)=O)C(=O)O)S2)C(=O)N2C(C(=O)O)=C(CSc3nnnn3C)CS[C@@H]21 (stereo partly drawn) | 21.7
O=C(NNC(=O)c1cnccn1)c1ccc(Cl)cc1 | 89.5
CCn1cc(C(=O)O)c(=O)c2cc(F)c(N3CCN(C(=S)NC(=O)c4ccc(F)cc4)CC3)cc21 | 53.4
O=C(Nc1ccccc1)Nc1ccc(Cl)c([N+](=O)[O-])c1 | 39.2
Cc1[nH]n(-c2ccccc2)c(=O)c1C(C[N+](=O)[O-])c1ccc(F)cc1 (stereo not drawn) | 109
N=c1n(Cc2ccccc2)c2ccccc2n1CC(O)COc1ccc(Cl)cc1Cl (stereo not drawn) | 49.4
Cc1ccc(C(C[N+](=O)[O-])c2c(-c3ccccc3O)[nH][nH]c2=O)cc1 (stereo not drawn) | 39.2
Oc1c(C(c2ccccn2)N2CCOCC2)ccc2cccnc12 (stereo not drawn) | 118
FC(F)(F)c1ccc2c(c1)N(CCCN1CCN(CCCl)CC1)c1ccccc1S2 | 146
COc1ccc(OC)c(C(=O)C2COC(=O)C2)c1 (stereo not drawn) | 134
O=C(N/N=C/c1sc2ccccc2c1O)c1cccc2ccccc12 | 40
CC(C)COc1ccc(Cc2cnc(N)nc2N)cc1 | 127
CC(C)NC1=C(Cl)C(=O)c2ccccc2C1=O | 59.4
CO[C@H]1C=CO[C@@]2(C)Oc3c(C)c(O)c4c(O)c(c(C=NN5CCN(C)CC5)c(O)c4c3C2=O)NC(=O)C(C)=CC=C[C@H](C)[C@H](O)[C@@H](C)[C@@H](O)[C@@H](C)[C@H](OC(C)=O)[C@@H]1C | 11.2
O=C(NC(CO)C(O)c1ccc([N+](=O)[O-])cc1)C(Cl)Cl (stereo not drawn) | 9.17
c1cnc2c(c1)ccc1cccnc12 | 40
Cc1cc(C)c2ccc(N)nc2c1O | 49.9
CCn1cc(C(=O)O)c(=O)c2cc(F)c(N3CCN(C(=S)NC(=O)c4cccc(C)c4)CC3)cc21 | 25.4
Cc1scc(C(=O)N/N=C/c2ccc([N+](=O)[O-])o2)c1C | 68.7

SMILES | IC50 [µM]
C#CCOCCOCCOCCNc1nc(N2CCN(C(=O)CCCCCCCCCCNC(=O)[C@H](CCCCN)n3cc(C[C@@H](C)CC)nn3)CC2)nc(N2CCN(C(=O)CCCCCCCCCCNC(=O)[C@H](CCCN=C(N)N)n3cc(C[C@@H](C)CC)nn3)CC2)n1 | 140
O=[N+]([O-])c1ccc(N/N=C/c2ccc[nH]2)cc1 | 141
Clc1ccc(CN2CCC(c3nc4ccc(Cl)cc4[nH]3)CC2)cc1 | 51.7
O=C(CSc1ccccn1)N/N=C/c1cc([N+](=O)[O-])ccc1O | 45.6
CCCCCCCCCCCCCCCCn1cc[n+](CC(C)=O)c1 | 86.1
O=C(C[n+]1cc(-c2ccc(Cl)cc2)n2c1CCC2)Nc1nc(-c2ccc(F)cc2)cs1 | 68.2
CCn1cc(C(=O)NCC(C)C)c(=O)c2cc(F)c(N3CCN(C)CC3)cc21 | 72.6
COc1c(N2CCNC(C)C2)c(F)cc2c(=O)c(C(=O)O)cn(C3CC3)c12 (stereo not drawn) | 0.44
CCCCCCCCCCOC(=O)Cn1c(COc2ccc(Cl)cc2)[n+](C)c2ccccc21 | 26.7
CNC[C@H](CC1CCCCC1)NC[C@H](Cc1ccccc1)NCCC12CC3CC(CC(C3)C1)C2 | 19.6
O=C(N/N=C/c1cc(Cl)ccc1O)c1cccnc1 | 35
CCCCCCCCCCCCCCCC[n+]1cccc(C(=O)N(CC)CC)c1 | 29.6
C/C(=N\NC(=O)c1cc2ccccc2cc1O)c1ccccn1 | 31.9
CCCCCC(CC(=O)NO)C(=O)NC(C(=O)N1CCCC1CO)C(C)C (stereo not drawn) | 33.3
O=c1[nH][nH]c(-c2ccccc2O)c1C(C[N+](=O)[O-])c1ccc(Br)cc1 (stereo not drawn) | 66.5
Nc1ccc2c(c1)C(=O)C(=O)c1ccccc1-2 | 10.9
N=c1n(CC(=O)c2ccc(Br)s2)c2ccccc2n1Cc1ccccc1 | 131
Nc1ncn(C2O[C@H](CO)[C@@H](O)[C@H]2O)c(=O)n1 (stereo partly drawn) | 13.2
CCNC(=S)NNC(=O)c1ccccn1 | 33.7
Cc1cc(NC(c2cccnc2)c2ccc3cccnc3c2O)no1 (stereo not drawn) | 130
Fc1ccc(CCNCc2ccc(Cl)c(Cl)c2)cc1 | 109
Cc1ccccc1NC(=O)CCC(=O)N/N=C/c1cc([N+](=O)[O-])ccc1O | 138

SMILES | IC50 [µM]
CCN(CC)S(=O)(=O)c1cccc(C(=O)N/N=C/c2ccc(O)c(O)c2O)c1 | 78.9
Cc1sc2ncnc(N/N=C/c3ccccc3O)c2c1C | 69.2
Cc1ccc(C(=O)N/N=C/c2cc(Br)ccc2O)cn1 | 68.4
CCCOc1ccc(C(=O)NC(=S)N2CCN(c3cc4c(cc3F)c(=O)c(C(=O)O)cn4CC)CC2)cc1 | 18.6
O=C(c1cccs1)c1no[n+]([O-])c1C(=O)c1cccs1 | 13
O=C(O)C1Nc2c(O)cccc2C2C=CCC12 (stereo not drawn) | 64.9
CCCCC(CC)CN=C(N)NC(N)=NCCCCCCN=C(N)NC(N)=NCC(CC)CCCC (stereo not drawn) | 5.47
CCCCCCNC(=O)c1cn(CC)c2cc(N3CCN(C)CC3)c(F)cc2c1=O | 32
CCn1cc(C(=O)NCCO)c(=O)c2cc(F)c(N3CCN(C)CC3)cc21 | 29.9
CN1CCN(C(c2ccc(C(F)(F)F)cc2)c2cc(Cl)c3cccnc3c2O)CC1 (stereo not drawn) | 30.2
C=CC1=C(C(=O)O)N2C(=O)[C@@H](NC(=O)/C(=N\O)c3csc(N)n3)[C@H]2SC1 (stereo in doubt) | 33.8
CNC(=S)N1CCN(c2c(F)cc3c(=O)c(C(=O)O)cn(C4CC4)c3c2OC)CC1C (stereo not drawn) | 15.2
Nc1nonc1C(=O)N/N=C/c1cc(Br)ccc1O | 13
Cc1nc2c(=O)n(C)c(=O)nc-2n(C)n1 | 0.6
CCn1cc(C(=O)O)c(=O)c2cc(F)c(N3CCN(C(=S)NC(=O)c4cccc(F)c4)CC3)cc21 | 35.1
CC(=O)N1CCN(c2cc3c(cc2F)c(=O)c(C(=O)O)cn3C2CC2)CC1 | 21.6
COc1ccc(C(C[N+](=O)[O-])C2(c3ccc(OC)c(OC)c3)C(=O)c3ccccc3C2=O)cc1 (stereo not drawn) | 23.6
CCn1cc(C(=O)NCCCO)c(=O)c2cc(F)c(N3CCN(C)CC3)cc21 | 46
CN(C)c1ccc(/C=C/c2ccc3c4ccccc4ccc3[n+]2-c2ccccc2)cc1 | 18.8
CCn1cc(C(=O)O)c(=O)c2cc(F)c(N3CCN(C(=S)NC(=O)c4ccccc4C)CC3)cc21 | 22.2
